# Laboratory results published in patent US20070203126A1, “Synergistic Mixtures of O-Phenylphenol and Dazomet” (priority 2002, published 2007).
# System: artificial bacterial consortium containing approximately equal numbers of six bacterial strains
# Test: bacterial growth inhibition dose protocol in synthetic white water (O.D. 650 nm, 4 hours)
# Type: cell-based
# Details: for Synergy Index / Synergy Index**: SI<1 synergism; for ppm BCDMH: BCDMH alone or in blend with NaOPP giving 50% inhibition; for ppm BIT: BIT alone or in blend with NaOPP giving 50% inhibition; for ppm BNS: BNS alone or in blend with NaOPP giving 50% inhibition; for ppm DBNPA: DBNPA alone or in blend with NaOPP giving 50% inhibition; for ppm Dithiol: Dithiol alone or in blend with NaOPP giving 50% inhibition
# Method: The actives were evaluated in synthetic white water with pH values of 5.5 and 8.0. The materials were tested against an artificial bacterial consortium containing approximately equal numbers of six bacterial strains. […] Two of the strains were Kiebsiella pneumoia (ATCC 13883) and Pseudomonas aeruginosa (ATCC 15442). The other four strains were isolated from papermill systems and have been identified as Curtobacterium flaccumfaciens, Burkhlderia cepacia, Bacillus maroccanus, and Pseudomonas glethei. Each strain was inoculated at 37° C. overnight, then suspended in sterile saline. Equal volumes of each strain were then combined to prepare the consortium. The bacterial consortium was distributed into the wells of a microtiter plate in the presence or absence of various concentrations of the active materials. The microtiter plates were incubated at 37° C. Optical density (O.D.) readings at 650 nm were taken initially (t0) and after time 4 hours (t4) of incubation.
# The raw data was converted to “bacterial growth inhibition percentages” according to the following formula: % Inhibition=[(a−b)÷a]·100 […]
# a=(O.D. of control at tn)−(O.D. of control at t0) b=(O.D. of treatment at tn)−(O.D. of treatment at t0)
# The inhibition values can be plotted versus dosage for each active and the particular blend. […] The synergism index (SI) was calculated by the equations described by F. C. Kull, P. C. Eisman, H. D. Sylwestrowicz, and R. L. Mayer (1961), Applied Microbiology 9, 538-541. The values are based on the amount needed to achieve a specified end point. […] Synergy Index (SI)=(QA÷Qa)+(QB÷Qb) […]
# QA=quantity of compound A in mixture, producing the end point
# Qa=quantity of compound A1 acting alone, producing the end point
# QB=quantity of compound B in mixture, producing the end point
# Qb=quantity of compound B1 acting alone, producing the end point
# If SI is less than 1, synergism exists; if SI is greater than 1, antagonism exists, if SI is equal to 1, an additive effect exists.
# [1] = pH 5.5, BCDMH & NaOPP, end point 50% inhibition
# [2] = pH 8.0, BCDMH & NaOPP, end point 50% inhibition
# [3] = pH 5.5, BIT & NaOPP, end point 50% inhibition
# [4] = pH 8.0, BIT & NaOPP, end point 50% inhibition
# [5] = pH 5.5, BNS & NaOPP, end point 50% inhibition
# [6] = pH 8.0, BNS & NaOPP, end point 50% inhibition
# [7] = pH 5.5, DBNPA & NaOPP, end point 50% inhibition
# [8] = pH 8.0, DBNPA & NaOPP, end point 50% inhibition
# [9] = pH 5.5, DIMTS & NaOPP, end point 50% inhibition
# [10] = pH 8.0, DIMTS & NaOPP, Calculated Using 40% Inhibition of Bacterial Growth
# [11] = pH 5.5, Dithiol & NaOPP, end point 50% inhibition
# [12] = pH 8.0, Dithiol & NaOPP, end point 50% inhibition
# [13] = pH 5.5, NaOCl & NaOPP, Calculated Using 30% Inhibition of Bacterial Growth
# [14] = pH 5.5, Sulfone & NaOPP, end point 50% inhibition
# [15] = pH 8.0, Sulfone & NaOPP, end point 50% inhibition
smiles,measurement,setting,value
"CC1(C)C(=O)N(Cl)C(=O)N1Br [BCDMH, 1-Bromo-3-chloro-5,5-dimethylhydantoin]",Synergy Index,[1],1.00
same,ppm BCDMH,"pH 5.5, ppm active",14.60 ppm
same,Synergy Index,[2],1.00
same,ppm BCDMH,"pH 8.0, ppm active",34.37 ppm
"O=c1[nH]sc2ccccc12 [BIT, 1,2-Benzisothiazolin-3-one]",Synergy Index,[3],1.00
same,ppm BIT,"pH 5.5, ppm active",1.46 ppm
same,Synergy Index,[4],1.00
same,ppm BIT,"pH 8.0, ppm active",2.86 ppm
"O=[N+]([O-])C(Br)=Cc1ccccc1 [BNS, Bromonitrostyrene]",Synergy Index,[5],1.00
same,ppm BNS,"pH 5.5, ppm active",1.19 ppm
same,Synergy Index,[6],1.00
same,ppm BNS,"pH 8.0, ppm active",3.08 ppm
"N#CC(Br)(Br)C(N)=O [DBNPA, 2,2-Dibromo-3-nitrilopropionamide]",Synergy Index,[7],1.00
same,ppm DBNPA,"pH 5.5, ppm active",1.69 ppm
same,Synergy Index,[8],1.00
same,ppm DBNPA,"pH 8.0, ppm active",3.01 ppm
"Cc1ccc(S(=O)(=O)C(I)I)cc1 [DIMTS, Diiodomethyl-p-tolylsulfone]",Synergy Index,[9],1.00
same,ppm DIMTS,"pH 5.5, DIMTS alone or in blend with NaOPP giving 50% inhibition, ppm active",31.65 ppm
same,Synergy Index**,[10],1.00
same,ppm DIMTS,"pH 8.0, DIMTS alone or in blend with NaOPP producing the end point, footnote: 40% Inhibition of Bacterial Growth",22.84 ppm
"O=c1ssc(Cl)c1Cl [Dithiol, 4,5-Dichloro-1,2-dithiol-3-one]",Synergy Index,[11],1.00
same,ppm Dithiol,"pH 5.5, ppm active",0.073 ppm
same,Synergy Index,[12],1.00
same,ppm Dithiol,"pH 8.0, ppm active",0.16 ppm
"OCl [NaOCl, Sodium Hypochlorite]",Synergy Index**,[13],1.00
same,ppm NaOCl,"pH 5.5, NaOCl alone or in blend with NaOPP producing the end point, footnote: 30% Inhibition of Bacterial Growth",55.27 ppm
"[Na+].[O-]c1ccccc1-c1ccccc1 [NaOPP, Sodium orthophenylphenate]",Synergy Index,[1],1.00
same,Synergy Index,[3],1.00
same,Synergy Index,[5],1.00
same,Synergy Index,[7],1.00
same,Synergy Index,[9],1.00
same,Synergy Index,"pH 5.5, Dazomet & NaOPP, end point 50% inhibition",1.00
same,Synergy Index,[11],1.00
same,Synergy Index,"pH 5.5, Iso & NaOPP, end point 50% Inhibition",1.00
same,Synergy Index**,[13],1.00
same,ppm NaOPP,"pH 5.5, NaOPP alone or in blend with BCDMH giving 50% inhibition, ppm active",78.40 ppm
same,ppm NaOPP,"pH 5.5, NaOPP alone or in blend with BIT giving 50% inhibition, ppm active",84.96 ppm
same,ppm NaOPP,"pH 5.5, NaOPP alone or in blend with BNS giving 50% inhibition, ppm active",90.47 ppm
same,ppm NaOPP,"pH 5.5, NaOPP alone or in blend with DBNPA giving 50% inhibition, ppm active",88.38 ppm
same,ppm NaOPP,"pH 5.5, NaOPP alone or in blend with DIMTS giving 50% inhibition, ppm active",84.10 ppm
same,ppm NaOPP,"pH 5.5, NaOPP alone or in blend with Iso giving 50% Inhibition, ppm active",82.73 ppm
same,ppm NaOPP,"pH 5.5, NaOPP alone or in blend with NaOCl producing the end point, footnote: 30% Inhibition of Bacterial Growth",54.92 ppm
same,ppm NaOPP,"pH 5.5, NaOPP alone or in blend with Sulfone giving 50% inhibition, ppm active",56.78 ppm
same,Synergy Index,[14],1.00
same,Synergy Index,[2],1.00
same,Synergy Index,[4],1.00
same,Synergy Index,[6],1.00
same,Synergy Index,[8],1.00
same,Synergy Index**,[10],1.00
same,Synergy Index,"pH 8.0, Dazomet & NaOPP, end point 50% inhibition",1.00
same,Synergy Index,[12],1.00
same,Synergy Index,"pH 8.0, Iso & NaOPP, end point 50% Inhibition",1.00
same,ppm NaOPP,"pH 8.0, NaOPP alone or in blend with BIT giving 50% inhibition, ppm active",116.41 ppm
same,ppm NaOPP,"pH 8.0, NaOPP alone or in blend with BNS giving 50% inhibition, ppm active",123.16 ppm
same,ppm NaOPP,"pH 8.0, NaOPP alone or in blend with DBNPA giving 50% inhibition, ppm active",137.13 ppm
same,ppm NaOPP,"pH 8.0, NaOPP alone or in blend with DIMTS producing the end point, footnote: 40% Inhibition of Bacterial Growth",97.74 ppm
same,ppm NaOPP,"pH 8.0, NaOPP alone or in blend with Dazomet giving 50% inhibition, ppm active",158.32 ppm
same,ppm NaOPP,"pH 8.0, NaOPP alone or in blend with Dithiol giving 50% inhibition, ppm active",132.71 ppm
same,ppm NaOPP,"pH 8.0, NaOPP alone or in blend with Iso giving 50% Inhibition, ppm active",114.14 ppm
same,ppm NaOPP,"pH 8.0, NaOPP alone or in blend with Sulfone giving 50% inhibition, ppm active",67.8 ppm
same,Synergy Index,[15],1.00
"O=S(=O)(C(Cl)(Cl)Cl)C(Cl)(Cl)Cl [Sulfone, Bis(trichlormethyl)sulfone]",Synergy Index,[14],1.00
same,ppm Sulfone,"pH 5.5, Sulfone alone or in blend with NaOPP giving 50% inhibition, ppm active",1.154 ppm
same,Synergy Index,[15],1.00
same,Ppm Sulfone,"pH 8.0, Sulfone alone or in blend with NaOPP giving 50% inhibition, ppm active",1.34 ppm
